Where “and” joins values, the source holds several entries; their conditions need not be identical. Equal values may be shown once.
Assays:
[1] = Chronic administration, maximum tolerated dose in the rat; assay type: in vivo; conditions: rat, in vivo, administration chronique, read-out: dose maximale tolérée
Experimental: (§1) • - Le comportement et l'[…] pondérale des animaux sont étudiés par l'observation quotidienne et les pesées hebdomadaires. L'étude de l'évolution pondérale ne montre pas de différence significative entre les différents lots. C'est un indice de bonne tolérance du traitement. • - La moralité est notée dans chaque lot; elle peut atteindre 30 % des animaux ce qui nécessite des lots de 15 animaux. L'administration chronique de 100 mg/kg de Clofibrate correspond à la dose maximale tolérée par le Rat sain selon nos expériences personnelles.

Rat sain = assay: as above; assay type: in vivo; conditions: administration chronique
Experimental: as §1

Rats: Wistar femelles [2] = assay: Atherogenic diet (modified Aubert technique): histopathological examination; assay type: in vivo, Rat Wistar; conditions: 100 mg/kg; three parameters scored relative to Clofibrate
Text: La technique utilisée est celle, légèrement modifiée, de AUBERT D., FERAUD J.C., LACAZE B., PEPINO., PANAK E. et PODESTA M. "Athérogénèse expérimentale chez le Rat Wistar". ATHEROSCLEROSIS 2Q (1974) 263 - 280.
(§2) • - Rats: Wistar femelles, E.O.P.S. en provenance de l'élevage EVIC-CEBA. • - Poids corporel: 160 180 g au départ de l'étude • - Alimentation: UAR A03, enrichi en cholestérol (0,5 %) et en Acide chloique (0,5 %). • - Eau de boisson: eau de ville. • - 15 animaux par lot et par cage MAKROLON SAFI® de 59 x 38,5 cm sur litière de copeaux de bois blanc dépoussiérés. • - Cages placées dans un module animalerie climatisé (20°C * 1°C), à l'humidité constante (50 % ± 10 %). Durée d'éclairement: 12 heures par jour (7 h à 19 h). • - Administration des produits: Après 15 jours de régime athéromateux, on leur administre par voie orale pendant 4 jours 250 000 Ul/kg de vitamine D2 (Stérogyl 15 H) en solution dans l'huile d'olive. On administre ensuite les produits à étudier pendant 4 semaines dès la fin de l'administration de l'agent lésionnel.
Les aortes, les foies et les coeurs sont fixés au Bouitaqueux et inclus à la paraffine après passage par les alcools à concentration croissante et par le toluène.
Les foies sont colorés par la technique à l'hématéine-éosine. Les aortes sont colorées par: • - la technique à l'orcéine - vert lumière afin de mettre en évidence les altérations structurales des lames élastiques. • - la technique à l'acide périodique plus réactif de Schiff pour déceler les dépôts de mucopolysaccharides, • - la technique à l'hématéine plus éosine afin de mettre en évidence les dépôts de calcium.
L'intensité des altérations observées et le degré d'athéromatose sont indiquées par l'un des signes:
• - Pas d'athéromatose 0 • = Très léger degré d'athéromatose 0,5 • + Léger degré d'athéromatose 1 • ++ Moyen degré d'athéromatose 2 • +++Important degré d'athéromatose 3
Les zones athéromateuses sont dénombrées sur une longueur identique pour chacune des aortes examinées. […]

Rats: Wistar femelles [3] = assay: Atherogenic diet (modified Aubert technique): mortality, body weight, tolerance, overall score; assay type: in vivo, Rat Wistar; conditions: 100 mg/kg; for taux de mortalité: lots of 15 rats on atherogenic diet; for Score Total: sum of Biochimie, Risque athérogène, Macroscopie, Histologie
Experimental: as §2
L'étude porte sur 5 Lots de 15 rats (tableau N° IV)
as §1
Les scores obtenus par les différents produits étudiés sont les suivants (Tableau V)

Rat Wistar = assay: Hyperlipidaemia induced by Triton WR 1339 injection; assay type: in vivo; design: Triglycérides, score par rapport au Procétofène 250 mg/kg: scale not given here
Text: L'hyperlipidémie par injection de Triton WR 1339 (marque de fabrique), réalisée chez le Rat Wistar, est antagonisée ou diminuée par l'administration d'agents hypolipémiants.
• - Rats Wistar mâles. • - Poids corporel: 150 -180 grammes. • - Animaux E.O.P.S. (Exempts d'Organisme Pathogène Spécifique). • - Alimentation UAR A04 • - Eau de boisson à volonté • - 6 animaux par lot de traitement et par cage MAKROLON SAFI (marque de fabrique) 60 X 40 cm, sur litière de copeaux de bois dépoussiérés • - Cages placées dans un module animalerie climatisé (19 à 21°C) à degré hygrométrique constant (40 à 60 p.100), dans lequel l'air est renouvelé 10 fois par heure, 12 heures d'éclairement par jour.
• . - 18 h: mise à jeun. • . Temps 0 - administration du Triton WR 1339® (400 mg/kg IP.). • . + 10 mn: administration du produit étudié. • - + 6 h: 1er prélèvement sanguin au sinus rétro-orbitaire. • . + 24 h: 2ème prélèvement sanguin au sinus rétro-orbitaire.
L'essai comporte 8 lots dont un lot témoin (animaux sains) et un lot témoin triton (Tableau I).

[4] = 125 mg/kg, 6 heures after Triton
[5] = 125 mg/kg, 24 heures after Triton
[6] = 250 mg/kg, 6 heures after Triton
[7] = 250 mg/kg, 24 heures after Triton
[8] = 500 mg/kg, 6 heures after Triton
[9] = 500 mg/kg, 24 heures after Triton
[10] = 750 mg/kg, 6 heures after Triton
[11] = 750 mg/kg, 24 heures after Triton

SMILES: CCOC(=O)C(C)(C)Oc1ccc(Cl)cc1 [Clofibrate]
- MTD [1]: ~100 mg/kg
- dose maximale tolérée (Rat sain): 100 mg/kg
- Histologie score (Rats: Wistar femelles [2]): 3.00
- taux de mortalité (Rats: Wistar femelles [3]): 4/15
- Score Total (Rats: Wistar femelles [3]): 13.00

SMILES: COc1ccc(C(=O)CC2(O)C(=O)c3ccccc3C2=O)cc1OC [Produit de l'invention, 2-[(3,4-dimethoxybenzoyl)methyl] 2-hydroxy 1,3-dioxo indane]
- Chol. Total, score par rapport au Procétofène 250 mg/kg (Rat Wistar; [4]): 2.44
- Score Total par rapport au Procétofène 250 mg/kg (Rat Wistar; [4]): 2.75
- Triglycérides, score par rapport au Procétofène 250 mg/kg (Rat Wistar; [4]): 0.31
- Chol. HDL/ LDL, score par rapport au Procétofène 250 mg/kg (Rat Wistar; [5]): 1.40
- Chol. Total, score par rapport au Procétofène 250 mg/kg (Rat Wistar; [5]): 0.28
- Score Total par rapport au Procétofène 250 mg/kg (Rat Wistar; [5]): 1.94
- Triglycérides, score par rapport au Procétofène 250 mg/kg (Rat Wistar; [5]): 0.26
- Chol. HDL/ LDL, score par rapport au Procétofène 250 mg/kg (Rat Wistar; [6]): 0.87
- Chol. Total, score par rapport au Procétofène 250 mg/kg (Rat Wistar; [6]): 1.15
- Lipides Totaux, score par rapport au Procétofène 250 mg/kg (Rat Wistar; [6]): 0.92
- Score Total par rapport au Procétofène 250 mg/kg (Rat Wistar; [6]): 3.74
- Triglycérides, score par rapport au Procétofène 250 mg/kg (Rat Wistar; [6]): 0.80
- Chol. HDL/ LDL, score par rapport au Procétofène 250 mg/kg (Rat Wistar; [7]): 1.10
- Chol. Total, score par rapport au Procétofène 250 mg/kg (Rat Wistar; [7]): 1.13
- Lipides Total, score par rapport au Procétofène 250 mg/kg (Rat Wistar; [7]): 1.56
- Score Total par rapport au Procétofène 250 mg/kg (Rat Wistar; [7]): 4.64
- Triglycérides, score par rapport au Procétofène 250 mg/kg (Rat Wistar; [7]): 0.85
- Chol. HDL/ LDL, score par rapport au Procétofène 250 mg/kg (Rat Wistar; [8]): 2.00
- Chol. Total, score par rapport au Procétofène 250 mg/kg (Rat Wistar; [8]): 0.35
- Lipides Totaux, score par rapport au Procétofène 250 mg/kg (Rat Wistar; [8]): 1.00
- Score Total par rapport au Procétofène 250 mg/kg (Rat Wistar; [8]): 4.95
- Triglycérides, score par rapport au Procétofène 250 mg/kg (Rat Wistar; [8]): 1.60
- Chol. HDL/ LDL, score par rapport au Procétofène 250 mg/kg (Rat Wistar; [9]): 0.80
- Chol. Total, score par rapport au Procétofène 250 mg/kg (Rat Wistar; [9]): 0.75
- Lipides Total, score par rapport au Procétofène 250 mg/kg (Rat Wistar; [9]): 1.62
- Score Total par rapport au Procétofène 250 mg/kg (Rat Wistar; [9]): 3.66
- Triglycérides, score par rapport au Procétofène 250 mg/kg (Rat Wistar; [9]): 0.49
- Chol. Total, score par rapport au Procétofène 250 mg/kg (Rat Wistar; [10]): 0.78
- Lipides Totaux, score par rapport au Procétofène 250 mg/kg (Rat Wistar; [10]): 0.14
- Score Total par rapport au Procétofène 250 mg/kg (Rat Wistar; [10]): 1.72
- Triglycérides, score par rapport au Procétofène 250 mg/kg (Rat Wistar; [10]): 0.80
- Chol. HDL/ LDL, score par rapport au Procétofène 250 mg/kg (Rat Wistar; [11]): 0.40
- Chol. Total, score par rapport au Procétofène 250 mg/kg (Rat Wistar; [11]): 0.61
- Score Total par rapport au Procétofène 250 mg/kg (Rat Wistar; [11]): 1.73
- Triglycérides, score par rapport au Procétofène 250 mg/kg (Rat Wistar; [11]): 0.72
- hyperlipémie provoquée par le Triton WR 1339 (Rat Wistar; dès la dose de 125 mg/kg par voie orale, Rat): antagonisée au diminuée
- Histologie score (Rats: Wistar femelles [2]): 1.3 and 1.32
- taux de mortalité (Rats: Wistar femelles [3]): 2/15
- Score Total (Rats: Wistar femelles [3]): 10.46

Source: patent EP0167553B1, “NEW THERAPEUTICAL APPLICATION OF AN INDANE DIONE DERIVATIVE AND PHARMACEUTICAL COMPOSITIONS INTENDED TO SAID UTILIZATION” (priority 1983, dated 1985)
